Results: US20090181942A1, “TRICYCLIC COMPOUNDS” (DAIICHI SANKYO COMPANY, LIMITED, priority 2005, published 2009)

Tests used:
rat squalene synthetase = target: T1, rat squalene synthetase (Rattus norvegicus, UniProt Q02769); assay: Rat squalene synthetase inhibitory activity (rat liver microsomal fraction, [3H]farnesyl-pyrophosphate); type: biochemical; conditions: rat liver microsomal fraction 30 μg/mL, 5 μM [3H]farnesyl-pyrophosphate, 37° C., 20 minutes; read-out: IC50 (squalene synthetase inhibitory activity: concentration inhibiting 50% of radioactivity incorporated into squalene)
T1 construct: the final sediment thus obtained was used as a microsomal fraction for the measurement of enzymatic activity; from tissue; host or cells: liver of eight-week-old SD male rats, washed 105,000 x g microsomal fraction
T1 sequence (Q02769 1-416): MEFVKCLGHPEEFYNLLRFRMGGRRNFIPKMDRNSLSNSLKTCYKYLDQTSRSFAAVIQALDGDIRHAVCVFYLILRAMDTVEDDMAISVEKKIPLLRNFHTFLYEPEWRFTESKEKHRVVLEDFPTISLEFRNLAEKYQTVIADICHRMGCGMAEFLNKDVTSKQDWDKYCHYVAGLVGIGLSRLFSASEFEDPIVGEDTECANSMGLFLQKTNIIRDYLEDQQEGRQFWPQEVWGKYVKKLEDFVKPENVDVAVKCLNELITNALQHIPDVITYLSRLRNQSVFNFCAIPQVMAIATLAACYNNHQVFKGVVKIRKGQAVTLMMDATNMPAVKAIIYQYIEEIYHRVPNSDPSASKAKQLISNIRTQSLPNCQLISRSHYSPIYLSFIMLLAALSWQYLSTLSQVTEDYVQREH
Procedure: 1. Rat Squalene Synthetase Inhibitory Activity
(1) Preparation of Enzyme Source
As an enzyme source, a microsomal fraction prepared from a rat liver was employed. First, eight-week-old SD male rats were subjected to laparotomy under anesthesia with pentobarbital sodium. […] To the liver thus obtained were added 0.3M sucrose, 1 mM dithiothreitol (DTT), 1 mM sodium ethylenediamine tetraacetate (EDTA) and various protease inhibitors. The resulting mixture was homogenized in the presence of a 10 mM phosphate buffer adjusted to pH 7.4 and centrifuged for 5 minutes at 2,000×g and for 15 minutes at 10,000×g. As the protease inhibitor, phenylmethanesulfonyl fluoride (PMSF), leupeptin and aprotinin were added to give the final concentrations of 1 mM, 10 μM, and 5 μg/mL, respectively. The supernatant after centrifugation was centrifuged further at 105,000×g for 60 minutes. The sediment thus obtained was suspended in a 10 mM phosphate buffer (pH 7.4) containing 1 mM DTT, 1 mM EDTA, and the above-described protease inhibitors and the resulting suspension was centrifuged at 105,000×g for 30 minutes, which operation was performed twice. After washing, the final sediment thus obtained was used as a microsomal fraction for the measurement of enzymatic activity.
(2) Measurement of Squalene Synthetase Inhibitory Activity
Squalene synthetase activity was measured in accordance with the method of Schechter, et al., described in Journal of Biological Chemistry, 267, 8628-8635 (1992). Described specifically, the compound of the present invention dissolved in water or dimethylsulfoxide (DMSO) was added to an enzyme reaction mixture (total amount: 50 μl) containing 5 mM reduced nicotinamide adenine dinucleotide phosphate (NADPH), 5 mM 3-[(3-cholamidopropyl)dimethylammonio]propanesulfonic acid (CHAPS), 10 mM potassium fluoride, 10 mM magnesium chloride, 10 mM DTT, 1 μM/mL NB-598 (squalene epoxydase inhibitor, Journal of Biological Chemistry, 265, 18075-180788 (1990)), 50 mM HEPES buffer (pH 7.4)), 30 μg/mL of the rat liver microsomal fraction, and 5 μM [^3H] farnesyl-pyrophosphate and the resulting mixture was reacted at 37° C. for 20 minutes (enzyme reaction was started by adding [^3H]farnesyl-pyrophosphate to the enzyme reaction mixture which had been incubated in advance at 37° C. for 10 minutes). To the enzyme reaction mixture was added 5 μl of 1M EDTA (pH 9.2) to terminate the enzyme reaction, followed by the addition of 5 μl of a 0.5% squalene ethanol solution. After spotting of a 40 μl portion of the resulting mixture on a plastic sheet for thin layer chromatography, development with 5% toluene-95% hexane and drying, these pots were visualized by exposure to iodine vapor and the band of squalene was identified. The spots were cut out with scissors and put in a vial container. To the container was added 10 mL of Aquasol-2 (product of New England Nuclear Research Products, USA) and radioactivity was measured by a liquid scintillation counter. The squalene synthetase inhibitory activity was expressed as a concentration (IC50) of the compound inhibiting 50% of radioactivity incorporated into squalene.

[1] = system: liver-cholesterol synthesis; assay: Rat single-dose liver-cholesterol synthesis inhibitory effect; type: in vivo; conditions: Wistar male rats, 3 mg/kg orally, 14C-mevalonic acid i.p. one hour later, liver taken one hour after that, relative to control group
Procedure: 2. Rat Single-Dose Liver-Cholesterol Synthesis Inhibitory Effect
A rat single-dose liver-cholesterol synthesis inhibitory effect was measured as described below.
To each the compounds of the present invention was added a necessary amount of a 0.5% methyl cellulose solution immediately before use. Then, an equivalent molar amount of sodium hydroxide or sodium hydrogen carbonate was added to dissolve or suspend it in the resulting solution. To 6-week-old Wistar male rats were orally administered each of the compounds of the present invention (3 mg/kg), while only a 0.5% methyl cellulose solution was administered to a control group. One hour later, physiological saline of mevalonic acid (5 μCi/5 mL/kg) labeled with a radioisotope ^14C was intraperitoneally administered. The rats were sacrificed one hour later. To 1 g of the liver thus obtained from the rats was added 5 mL of a 15% KOH ethanol solution and the resulting mixture was left to stand for 15 hours. After heating at 75° C. for 2 hours, the reaction mixture was extracted with 5 mL of water and 10 mL of petroleum ether. The petroleum ether layer was collected, evaporated to dryness and then dissolved in 50 μl of a chloroform:acetone=2:1 solution. The cholesterol band was separated by silica gel thin layer chromatography (Art.5748, toluene:ethyl acetate=3:1) and cut out. It was put in a vial container, followed by the addition of 10 mL of Aquasol-2 (product of Packard BioScience Company). The radioactivity was measured using a liquid scintillation counter. A ratio of the radioactivity relative to that of a control group was determined and liver-cholesterol synthesis inhibitory activity (%) was calculated.

Row | SMILES | IC50 (rat squalene synthetase) [nM] | Liver-cholesterol synthesis inhibitory effect [1] [%]
1 | COc1cccc(C2SC(CC(=O)N3CCC(CC(=O)O)CC3)c3nnc(C(F)(F)F)n3-c3ccc(Cl)cc32)c1OC (single isomer, unassigned) [Example 343, 2-(1-{2-[8-Chloro-6-(2,3-dimethoxyphenyl)-1-(trifluoromethyl)-4H,6H-[1,2,4]triazolo[4,3-a][4,1]benzothiazepin-4-yl]acetyl}-4-piperidinyl)acetic Acid] | 7.6 | 80
2 | COc1cccc([C@H]2O[C@H](CCn3nnc(CC(=O)O)n3)c3cccn3-c3c(F)cc(Cl)cc32)c1OC [Example 21, 2-(2-{2-[(4R,6S)-8-Chloro-6-(2,3-dimethoxyphenyl)-10-fluoro-4H,6H-pyrrolo[1,2-a][4,1]benzoxazepin-4-yl]ethyl}-2H-1,2,3,4-tetrazol-5-yl)acetic Acid] |  | 68
3 | O=C(O)CC1CCN(C(=O)CC2OC(c3cccc4ccccc34)c3cc(Cl)ccc3-n3cccc32)CC1 (stereo not drawn) [Example 210, 2-(1-{2-[8-Chloro-6-(1-naphthyl)-4H,6H-pyrrolo[1,2-a][4,1]benzoxazepin-4-yl]acetyl}-4-piperidinyl)acetic Acid] | 0.56 | 

Now from value to compound, other results behind:

Row | IC50 (rat squalene synthetase) [nM] | SMILES | Liver-cholesterol synthesis inhibitory effect [1] [%]
4 | 4.6 | COc1cccc([C@H]2O[C@H](Cc3ncc(CCC(=O)O)s3)c3nnc(C(F)(F)F)n3-c3ccc(Cl)cc32)c1OC (relative stereo) [Example 322, 3-({2-[(trans)-8-Chloro-6-(2,3-dimethoxyphenyl)-1-(trifluoromethyl)-4H,6H-[1,2,4]triazolo[4,3-a][4,1]benzoxazepin-4-yl]methyl}-1,3-thiazol-5-yl)propanoic Acid] | 76
5 | 4.9 | COC(=O)CCc1cnc(C[C@H]2S[C@H](c3cccc(OC)c3OC)c3cc(Cl)ccc3-n3c2nnc3C(F)(F)F)s1 (relative stereo) [Example 330, Methyl 3-({2-[(trans)-8-chloro-6-(2,3-dimethoxyphenyl)-1-(trifluoromethyl)-4H,6H-[1,2,4]triazolo[4,3-a][4,1]benzothiazepin-4-yl]methyl}-1,3-thiazol-5-yl)propanoate] | 75
6 | 3.9 | COc1cccc([C@H]2O[C@H](CCn3cc(C(=O)O)cn3)c3nccn3-c3ccc(Cl)cc32)c1OC [Example 263, 1-{2-[(4R,6S)-8-Chloro-6-(2,3-dimethoxyphenyl)-4H,6H-imidazo[1,2-a][4,1]benzoxazepin-4-yl]ethyl}-1H-pyrazole-4-carboxylic Acid] | 84
7 | 4.6 | COc1cccc(C2SC(CC(=O)O)c3nnc(C(F)(F)F)n3-c3ccc(Cl)cc32)c1OC (stereo not drawn) [Example 341, 2-[8-Chloro-6-(2,3-dimethoxyphenyl)-1-(trifluoromethyl)-4H,6H-[1,2,4]triazolo[4,3-a][4,1]benzothiazepin-4-yl]acetic Acid] | 90
